Source: patent EP4800015A1, “AZABICYCLO DERIVATIVE AND PREPARATION METHOD THEREFOR, AND USE” (Zhejiang Hisun Pharmaceutical Co., Ltd., priority 2023, dated 2025)

Target: T1, recombinant human WRN (Homo sapiens, UniProt Q14191)
T1 construct: purchased BPS 101264
Experiment: Inhibition of WRN enzyme activity (ATPase), ADP-Glo Kinase Assay
Assay type: biochemical
Conditions: WRN protein 5 nM, Flap 0.1 nM, ATP 30 µM; read-out: IC50
Summary of the method: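 ATPase activity was measured by ADP-Glo luminescence after a 10-min room-temperature reaction with 30 µM ATP and 0.1 nM Flap26 oligonucleotide substrate. The 5 nM WRN had first been exposed to compound (0.004–1000 nM) for 15 min in pH 7.5 Tris buffer with 2 mM MgCl2. IC50 values came from log-concentration regression against the DMSO control.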

T1 sequence (Q14191 whole entry): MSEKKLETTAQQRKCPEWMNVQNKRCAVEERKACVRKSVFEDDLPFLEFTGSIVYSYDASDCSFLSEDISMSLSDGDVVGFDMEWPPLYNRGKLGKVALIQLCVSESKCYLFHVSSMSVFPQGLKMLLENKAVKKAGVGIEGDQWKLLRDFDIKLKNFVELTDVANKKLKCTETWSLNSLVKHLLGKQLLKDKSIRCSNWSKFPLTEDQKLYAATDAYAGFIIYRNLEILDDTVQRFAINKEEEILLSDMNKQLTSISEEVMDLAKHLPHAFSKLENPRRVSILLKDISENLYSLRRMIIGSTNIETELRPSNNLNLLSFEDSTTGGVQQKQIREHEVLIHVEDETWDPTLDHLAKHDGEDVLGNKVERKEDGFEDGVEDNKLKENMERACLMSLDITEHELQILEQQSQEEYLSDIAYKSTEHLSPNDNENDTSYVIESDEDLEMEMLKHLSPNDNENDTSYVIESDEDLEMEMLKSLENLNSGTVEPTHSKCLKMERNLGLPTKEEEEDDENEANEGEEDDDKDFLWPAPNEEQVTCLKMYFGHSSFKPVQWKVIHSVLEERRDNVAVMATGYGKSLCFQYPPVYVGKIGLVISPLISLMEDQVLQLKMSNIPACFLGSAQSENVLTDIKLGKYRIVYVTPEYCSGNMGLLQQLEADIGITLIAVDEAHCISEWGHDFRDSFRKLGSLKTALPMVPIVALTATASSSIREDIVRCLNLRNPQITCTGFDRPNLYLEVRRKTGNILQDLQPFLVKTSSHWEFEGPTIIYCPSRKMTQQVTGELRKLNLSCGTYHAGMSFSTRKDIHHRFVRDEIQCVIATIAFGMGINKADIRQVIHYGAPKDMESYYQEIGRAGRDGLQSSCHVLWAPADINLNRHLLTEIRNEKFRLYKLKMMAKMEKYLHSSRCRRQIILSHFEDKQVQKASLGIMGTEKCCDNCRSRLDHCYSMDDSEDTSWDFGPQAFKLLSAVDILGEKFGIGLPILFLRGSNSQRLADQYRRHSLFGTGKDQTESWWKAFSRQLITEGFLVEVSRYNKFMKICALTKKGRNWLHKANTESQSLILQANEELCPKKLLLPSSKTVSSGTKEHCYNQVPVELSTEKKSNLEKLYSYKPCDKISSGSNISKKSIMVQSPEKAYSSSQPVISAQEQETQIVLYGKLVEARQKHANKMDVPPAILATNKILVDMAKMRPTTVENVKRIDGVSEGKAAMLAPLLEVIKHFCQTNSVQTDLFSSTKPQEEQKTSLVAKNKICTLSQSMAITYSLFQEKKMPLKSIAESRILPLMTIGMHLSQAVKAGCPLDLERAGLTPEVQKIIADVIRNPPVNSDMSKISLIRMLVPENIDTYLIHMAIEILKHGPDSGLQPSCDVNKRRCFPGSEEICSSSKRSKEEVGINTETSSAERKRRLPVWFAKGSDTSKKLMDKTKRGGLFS

| IC50 [µM] | SMILES |
| --- | --- |
| 0.001 to 0.1 | CCc1c(N2CCN(C(=O)c3ncnc(C)c3O)CC2)c(=O)n2nc(C=C3CC(C(N)=O)C3)nc2n1CC(=O)Nc1ccc(C(F)(F)F)cc1Cl (centres unmarked) [Example 116, 3-((4-(2-((2-chloro-4-(trifluoromethyl)phenyl)amino)-2-oxoethyl)-5-ethyl-6-(4-(5-hydroxy-6-methylpyrimidine-4-carbonyl)piperazin-1-yl)-7-oxo-4,7-dihydro-[1,2,4]triazolo[1,5-a]pyrimidin-2-yl)methylene)cyclobutane-1-carboxamide] |
| 0.001 to 0.1 | CCc1c(N2CCN(C(=O)c3ncnc(C)c3O)CC2)c(=O)n2nc(C=C3CCCC3)nc2n1CC(=O)Nc1ccc(C(F)(F)F)cc1Cl [Example 117, N-(2-chloro-4-(trifluoromethyl)phenyl)-2-(2-(cyclopentylidenemethyl)-5-ethyl-6-(4-(5-hydroxy-6-methylpyrimidine-4-carbonyl)piperazin-1-yl)-7-oxo-[1,2,4]triazolo[1,5-a]pyrimidin-4(7H)-yl)a cetamide] |
| 0.001 to 0.1 | CCc1c(N2CCN(C(=O)c3ncnc(C)c3O)CC2)c(=O)n2nc(C3=CC4(C3)CC(C(N)=O)C4)nc2n1CC(=O)Nc1ccc(C(F)(F)F)cc1Cl (centres unmarked) [Example 119, 6-(4-(2-((2-chloro-4-(trifluoromethyl)phenyl)amino)-2-oxoethyl)-5-ethyl-6-(4-(5-hydroxy-6-methylpyrimidine-4-carbonyl)piperazin-1-yl)-7-oxo-4,7-dihydro-[1,2,4]triazolo[1,5-a]pyrimidin-2-yl)spiro[3.3]hept-5-ene-2-carboxamide] |

More lines, now with the values behind:

| SMILES | IC50 [µM] |
| --- | --- |
| CCc1c(N2CCCN(C(=O)c3ncnc(C)c3O)CC2)c(=O)n2nc(-c3ccc4c(c3)CCO4)nc2n1CC(=O)Nc1ccc(C(F)(F)F)cc1Cl [Example 107, N-(2-chloro-4-(trifluoromethyl)phenyl)-2-(2-(2,3-dihydrobenzofuran-5-yl)-5-ethyl-6-(4-(5-hydroxy-6-methylpyrimidine-4-carbonyl)-1,4-diazepan-1-yl)-7-oxo-[1,2,4]triazolo[1,5-a]pyrimidin-4(7 H)-yl)acetamide] | 0.001 to 0.1 |
| CCc1c(N2CCC(NC(=O)c3ncnc(C)c3O)CC2)c(=O)n2nc(-c3ccc4c(c3)CCO4)nc2n1CC(=O)Nc1ccc(C(F)(F)F)cc1Cl [Example 108, N-(1-(4-(2-((2-chloro-4-(trifluoromethyl)phenyl)amino)-2-oxoethyl)-2-(2,3-dihydrobenzofuran-5-yl)-5-ethyl-7-oxo-4,7-dihydro-[1,2,4]triazolo[1,5-a]pyrimidin-6-yl)piperidin-4-yl)-5-hydroxy-6-methylpyrimidine-4-carboxamide] | 0.001 to 0.1 |
| CCc1c(N2CCN(C(=O)c3ncnc(C)c3O)CC2)c(=O)n2nc(-c3ccc4sc(C)nc4c3)nc2n1CC(=O)Nc1ccc(C(F)(F)F)cc1Cl [Example 110, N-(2-chloro-4-(trifluoromethyl)phenyl)-2-(5-ethyl-6-(4-(5-hydroxy-6-methylpyrimidine-4-carbonyl)piperazin-1-yl)-2-(2-methylbenzo[d]thiazol-5-yl)-7-oxo-[1,2,4]triazolo[1,5-a]pyrimidin-4(7H)-yl)acetamide] | 0.001 to 0.1 |
| CCc1c(N2CCN(C(=O)c3ncnc(C)c3O)CC2)c(=O)n2nc(-c3ccc4c(c3)ncn4C)nc2n1CC(=O)Nc1ccc(C(F)(F)F)cc1Cl [Example 111, N-(2-chloro-4-(trifluoromethyl)phenyl)-2-(5-ethyl-6-(4-(5-hydroxy-6-methylpyrimidine-4-carbonyl)piperazin-1-yl)-2-(1-methyl-1H-benzo[d]imidazol-5-yl)-7-oxo-[1,2,4]triazolo[1,5-a]pyrimidin-4(7H)-yl)acetamide] | 0.001 to 0.1 |
| CCc1c(N2CCN(C(=O)c3ncnc(C)c3O)CC2)c(=O)n2nc(-c3cnc4[nH]ncc4c3)nc2n1CC(=O)Nc1ccc(C(F)(F)F)cc1Cl [Example 114, N-(2-chloro-4-(trifluoromethyl)phenyl)-2-(5-ethyl-6-(4-(5-hydroxy-6-methylpyrimidine-4-carbonyl)piperazin-1-yl)-7-oxo-2-(1H-pyrazolo[3,4-b]pyridin-5-yl)-[1,2,4]triazolo[1,5-a]pyrimidin-4(7 H)-yl)acetamide] | 0.001 to 0.1 |
